This is an account of results in patent US9408392B2, “Compounds” (SYNGENTA PARTICIPATIONS AG, priority 2012, dated 2016).

Values joined by “and” are separate entries in the source; they are usually repeats but may differ in a detail not shown here. Identical values can stand only once.

The test system of data set [1] is Meloidogyne spp. (Root-knot nematode). Briefly: Meloidogyne spp. (Root-knot nematode) contact activity, preventive, pouch test (Biological Screen Nem 1). In kind it is in vivo. The note with it: cucumber cv. Toshka, test solutions at 200 ppm, 3000 eggs, assessed after twelve days, cis vs trans isomers. The protocol: Meloidogyne spp. (Root-knot nematode) contact activity, preventive. Pouch test. Filter papers (9 cm×4.5 cm) with a small pocket were placed into plastic pouches (12 cm×6 cm). One cucumber cv. Toshka seed was placed in the centre of the filter paper pocket of all the pouches needed for a test. The cucumber seeds in the pouches were treated with test solutions at 200 ppm by pipetting the solution directly over the cucumber seed in the filter paper pocket in the pouch. Prior to application, the compound solution was prepared at twice the concentration required and the egg suspension is prepared with FORL nutrient solution with 3000 eggs/0.5 ml. After applying all the treatments, 3000 eggs (in 0.5 ml of FORL nutrient solution) were pipetted into the pouches. The pouches were incubated in a moist chamber for twelve days and watered regularly to maintain good filter paper moisture essential for the growing cucumber root system. After this period, the filter paper containing the germinated cucumber seedling was removed from the plastic pouch to assess the number of galls caused by Meloidogyne spp. per root system. Biological Screen Nem 1. Meloidogyne spp. (Root-knot nematode) contact activity, preventive. Pouch test. Values are given in % galling.

The next data set has as its system M. incognita. Put plainly: Meloidogyne spp. (Root-knot nematode) contact activity, preventive, drench test (Biological Screen Nem 2). In kind it is in vivo. The note with it: cucumber cv. Toshka in pots, WP10 suspension at 20 ppm, 3000 eggs of M. incognita, harvested after fourteen days, Zeck's gall index, cis vs trans isomers. Here is the method:
Meloidogyne spp. (Root-knot nematode) contact activity, preventive, drench test. Cucumber cv. Toshka seeds were shown directly into pots filled with a sandy substrate. Six days later pots were each treated with 5 ml of a WP10 suspension of the test compound at 20 ppm. Hereafter pots were inoculated with 3000 eggs of M. incognita. The trial was harvested fourteen days after trial application and inoculation. Root galling was assessed according to Zeck's gall index (Zeck, 1971). Biological Screen Nem 2. Meloidogyne spp. (Root-knot nematode) contact activity, preventive, drench test. Values are given in % galling.

With `O=C(N[C@@H]1C[C@@H]1c1ccc(Cl)cc1Cl)c1ccccc1C(F)(F)F` (racemic) [Compound 67-014], in data set [1], the “Nem 1 (% galling)” value was 100%. The “Nem 2 (% galling)” value in the data set on M. incognita was 98%.

`O=C(N[C@@H]1C[C@@H]1c1ccc(C(F)(F)F)cc1)c1ccccc1C(F)(F)F` (racemic) [Compound 67-026]: in data set [1], the “Nem 1 (% galling)” value is listed as 64%. Moreover, the “Nem 2 (% galling)” value with M. incognita was determined as 82%.

For `C[C@H]1C(NC(=O)c2c(F)cccc2F)[C@H]1c1ccc(F)cc1` (mixture of isomers) [Compound 68.003, 2,6-difluoro-N-[(1R,2R,3R)-2-(4-fluorophenyl)-3-methyl-cyclopropyl]benzamide], the melting point (as a rule, the temperature, or range, at which the solid turns liquid) was in the range of 90 to 96 °C.

`C[C@H]1C(c2ccc(Cl)cc2)[C@@H]1NC(=O)c1ccccc1C(F)(F)F` (mixture of isomers) [Compound 68.008, N-[(1R,2R,3S)-2-(4-chlorophenyl)-3-methyl-cyclopropyl]-2-(trifluoromethyl)benzamide]: the melting point was in the range of 167 to 169 °C.

With `C[C@]1(c2ccc(Cl)cc2)CC1NC(=O)c1c(F)cccc1F` (mixture of isomers) [Compound 68.009, N-[(1R,2R)-2-(4-chlorophenyl)-2-methyl-cyclopropyl]-2,6-difluoro-benzamide], the melting point lay within 140 to 142 °C.

Take `O=C(N[C@@H]1C[C@@H]1c1ccc(F)cc1)c1ccccc1C(F)(F)F` (relative stereo) [Compound 67-003, N-[cis-2-(4-Fluoro-Phenyl)-Cyclopropyl]-2-Trifluoromethyl-benzamide]: the melting point is 140 to 142 °C and 139 to 140 °C.

As to `O=C(N[C@@H]1C[C@@H]1c1ccc(OC(F)F)cc1)c1ccccc1C(F)(F)F` (relative stereo) [Compound 67-011, N-[cis-2-(4-difluoromethoxy-phenyl)-cyclopropyl]-2-trifluoromethyl-benzamide], the melting point lay within 133 to 136 °C.

Consider `Cn1cc(C(=O)N[C@@H]2C[C@@H]2c2ccc(F)cc2)c(C(F)F)n1` (relative stereo) [Compound 67.002, 3-difluoromethyl-1-methyl-1H-pyrazole-4-carboxylic acid [(cis)-2-(4-fluoro-phenyl)-cyclopropyl]-amide], for which the melting point lay in the range of 141 to 143 °C.

The compound `O=C(N[C@@H]1CC1c1ccc(Cl)cc1Cl)c1c(F)cccc1F` (stereo partly shown) [Compound 67-016] had a melting point of 179 to 182 °C. In addition, in data set [1], the “Nem 1 (% galling)” value worked out at 81%. The “Nem 2 (% galling)” value in the data set on M. incognita is reported as 96%.
